The subject of series [1] is Mus musculus. Description: Anticonvulsant activity in Kunming mouse assessed as MES-induced hind limb extension at 100 mg/kg, ip administered 0. 5 to 2 hrs before MES stimulation. The format is functional, organism-based.
The species entered for series [2] is Homo sapiens. Put plainly: Inhibition of human LDH1 at 0.5 mM using sodium pyruvate as substrate by UV-VIS spectrophotometry method relative to control.
The species named for series [3] is Homo sapiens. Description: Inhibition of human LDH1 at 2 mM using sodium pyruvate as substrate by UV-VIS spectrophotometry method relative to control.
The nature of series [4]: Neurotoxicity against Kunming mouse assessed as time remained in rod at 100 mg/kg, ip administered 0.5 to 2 hrs by rotarod test. The format is toxicity, organism-based. To be noted: in vivo. Background: In the rotarod test animals must keep their balance on a rotating rod.
In series [5] the target is GABA-A receptor; alpha-1/beta-2/gamma-2 (Homo sapiens) (UniProt P14867+P47870+P18507). Description: Agonist activity at GABA alpha1beta2gamma2 receptor in human HEK293T at 3.3 to 300 uM at -50 mV holding potential by whole cell voltage clamp assay relative to control. The format is protein-complex assay.
In series [6] the target is T1, GABA-A receptor; alpha-1/beta-2/gamma-2 (Homo sapiens, UniProt P14867+P18507+P47870).
T1 sequence (P14867 whole entry): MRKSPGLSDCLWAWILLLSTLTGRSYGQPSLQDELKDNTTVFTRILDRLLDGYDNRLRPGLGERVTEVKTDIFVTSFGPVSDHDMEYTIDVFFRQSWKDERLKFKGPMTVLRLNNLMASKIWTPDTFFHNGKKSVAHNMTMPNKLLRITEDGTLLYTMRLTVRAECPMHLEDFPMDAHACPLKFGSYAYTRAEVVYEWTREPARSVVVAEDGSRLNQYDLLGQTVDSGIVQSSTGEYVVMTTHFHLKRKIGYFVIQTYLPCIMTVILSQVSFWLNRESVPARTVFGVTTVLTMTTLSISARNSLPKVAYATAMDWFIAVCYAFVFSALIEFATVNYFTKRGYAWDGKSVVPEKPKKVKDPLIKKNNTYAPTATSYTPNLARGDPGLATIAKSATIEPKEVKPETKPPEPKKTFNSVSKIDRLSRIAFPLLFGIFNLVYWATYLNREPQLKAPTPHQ
T1 sequence (P47870 whole entry): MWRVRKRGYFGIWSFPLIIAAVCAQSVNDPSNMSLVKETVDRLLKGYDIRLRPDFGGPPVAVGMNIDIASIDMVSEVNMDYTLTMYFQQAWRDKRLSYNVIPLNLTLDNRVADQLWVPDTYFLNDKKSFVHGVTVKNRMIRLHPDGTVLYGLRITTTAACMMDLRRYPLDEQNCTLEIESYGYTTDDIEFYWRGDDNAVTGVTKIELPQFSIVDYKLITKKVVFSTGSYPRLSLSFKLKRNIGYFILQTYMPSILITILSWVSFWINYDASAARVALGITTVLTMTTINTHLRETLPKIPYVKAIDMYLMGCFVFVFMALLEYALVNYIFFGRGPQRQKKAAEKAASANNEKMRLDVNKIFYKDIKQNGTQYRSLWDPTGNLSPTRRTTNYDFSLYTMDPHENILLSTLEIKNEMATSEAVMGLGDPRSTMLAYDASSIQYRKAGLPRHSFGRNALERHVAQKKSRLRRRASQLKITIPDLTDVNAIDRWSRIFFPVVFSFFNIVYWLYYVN
T1 sequence (P18507 whole entry): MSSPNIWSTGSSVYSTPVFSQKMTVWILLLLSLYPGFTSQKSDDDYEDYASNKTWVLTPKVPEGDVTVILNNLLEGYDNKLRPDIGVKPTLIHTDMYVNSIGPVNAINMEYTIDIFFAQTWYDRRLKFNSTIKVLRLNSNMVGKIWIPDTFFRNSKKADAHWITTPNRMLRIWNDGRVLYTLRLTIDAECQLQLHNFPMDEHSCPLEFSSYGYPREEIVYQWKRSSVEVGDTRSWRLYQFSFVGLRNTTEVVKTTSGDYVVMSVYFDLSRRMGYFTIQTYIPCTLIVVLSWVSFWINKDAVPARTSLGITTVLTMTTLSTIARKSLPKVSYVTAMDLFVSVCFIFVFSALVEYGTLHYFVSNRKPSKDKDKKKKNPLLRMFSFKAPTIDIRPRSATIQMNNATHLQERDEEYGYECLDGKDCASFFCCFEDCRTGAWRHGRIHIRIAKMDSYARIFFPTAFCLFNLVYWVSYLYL
Put plainly: Agonist activity at GABA alpha1beta2gamma2 receptor in human HEK293T at -50 mV holding potential by whole cell voltage clamp assay. The format is protein-complex assay.

The species entered for series [7] is Homo sapiens. Put plainly: Inhibition of human LDH5 at 2 mM using sodium pyruvate as substrate by UV-VIS spectrophotometry method relative to control.
The species entered for series [8] is Homo sapiens. Put plainly: Inhibition of human LDH5 at 0.5 mM using sodium pyruvate as substrate by UV-VIS spectrophotometry method relative to control.

Active and inactive are the calls of the source. The rule behind the calls is not given here.

One may read the inhibition as the drop in the measured response relative to a control, in per cent. What is called EC50 is the concentration at which the effect is half-maximal. Read a high EC50 as a less potent agent. For `CC(C)(C)C(O)/C=C/c1ccc2c(c1)OCO2` (stereo not drawn) [STIRIPENTOL], the result in series [1] was Active. Also, the inhibition result in series [2] and in series [8] was “inactive” in each case. Also, the inhibition in series [3] and in series [7] was 7 to 10% each time. For the same compound, the Activity result in series [4] is reported as “Non-Toxic”. The %max in series [5] was 310%. Besides, the midpoint of the response in series [6], the EC50, lay at 46 µM.

The values above are taken from ChEMBL document CHEMBL4311969, “Polygala tenuifolia-Acori tatarinowii herbal pair as an inspiration for substituted cinnamic α-asaronol esters: Design, synthesis, anticonvulsant activity, and inhibition of lactate dehydrogenase study” (Eur J Med Chem, 2019).
